Results taken from US8551507B2, “Terpene glycosides and their combinations as solubilizing agents” (Board of Supervisors of Louisiana State University And …, priority 2009, dated 2013).
≈ marks a conversion by molar mass, not a printed value. Like-named read-outs stand apart in the source and are kept apart here.

Assays:
[1] = Merck Index, Material Safety Data Sheets or general statement, cited from earlier work
[2] = 72 h
[3] = Solubility test: low-solubility compound in water or in water solutions containing 10% w/v natural solubilizer, quantified by HPLC/LC-MS; settings: 25° C. 72 hr; for Concentration in water solution With Geniposide: 10% w/v geniposide in water; for Concentration in water solution With Mogroside V: 10% w/v mogroside V in water; for Concentration in water solution With Paeoniflorin: 10% w/v paeoniflorin in water; for Concentration in water solution With Rebaudioside A: 10% w/v rebaudioside A in water; for Concentration in water solution With Rubusoside: 10% w/v rubusoside in water
[4] = physchem; settings: 25 °C, water, thermodynamic from solid
[5] = test system: hypertensive rats; settings: intraperitoneal, 50 mg/kg and 100 mg/kg body weight, hypertensive rats (Hsu et al. 2002); cited from earlier work
[6] = physchem; settings: water
[7] = Safety of daily consumption of steviol glycosides (estimates based on aglycone steviol); type: in vivo
[8] = in vivo; cited from earlier work
[9] = cyclodextrins, comparison; cited from earlier work

Compound | Water solubility in words [1] | Concentration in water solution With Astragaloside [2] [ng/mL] | Concentration in water solution With Geniposide [2] [ng/mL] | Concentration in water solution With Mogroside V [2] [ng/mL] | Concentration in water solution With Paeoniflorin [2] [ng/mL] | Concentration in water solution With Rubusoside [2] [ng/mL] | further results
COc1cc(/C=C/C(=O)CC(=O)/C=C/c2ccc(O)c(OC)c2)ccc1O [Curcumin, curcumin] | insoluble in water | 0 | 4000 | 44000 | 5000 | 262000 | Water solubility in words ([1]; listed as curcumin): insoluble; Concentration in water solution With Steviol monoside [2]: 4000 ng/mL
CO[C@H]1C[C@H](O[C@H]2CC[C@@]3(C)[C@H](CC[C@@H]4[C@@H]3CC[C@]3(C)[C@@H](C5=CC(=O)OC5)[C@@H](OC(C)=O)C[C@]43O)C2)O[C@@H](C)[C@@H]1O [Oleandrin, oleandrin] | practically insoluble in water |  |  |  |  |  | Concentration in water solution With Geniposide [3]: 28000 ng/mL; Concentration in water solution With Mogroside V [3]: 47000 ng/mL; Concentration in water solution With Paeoniflorin [3]: 42000 ng/mL; Concentration in water solution With Rebaudioside A [3]: 67000 ng/mL; Concentration in water solution With Rubusoside [3]: 123000 ng/mL; Concentration in water solution With Stevioside ([3]; 10% w/v stevioside in water): 74000 ng/mL; Concentration in water solution With Astragaloside ([3]; nominal 10% w/v astragaloside IV in water (precipitated, less than 10%)): 5000 ng/mL; Concentration in water solution With Steviol monoside ([3]; nominal 10% w/v steviol monoside in water (precipitated, less than 10%)): 7000 ng/mL; solubility [4]: 3 µg/mL (≈ 0.0052 mM)
C[C@H]1O[C@@H](O[C@H]2[C@@H](O)C[C@H](O[C@H]3[C@@H](O)C[C@H](O[C@H]4CC[C@@]5(C)[C@H](CC[C@@H]6[C@@H]5C[C@@H](O)[C@]5(C)[C@@H](C7=CC(=O)OC7)CC[C@]65O)C4)O[C@@H]3C)O[C@@H]2C)C[C@H](O)[C@@H]1O [Digoxin, digoxin] |  |  |  |  |  |  | solubility [4]: 19 µg/mL (≈ 0.0243 mM)
COc1cc(C2Oc3cc([C@H]4Oc5cc(O)cc(O)c5C(=O)[C@@H]4O)ccc3OC2CO)ccc1O (some centres unmarked) [Silybin, silybin] |  | 0 | 16000 | 18000 | 37000 | 150000 | Solubility in water without solubilizer [2]: 0^2 μg/mL
Cc1coc2c1C(=O)C(=O)c1c-2ccc2c1CCCC2(C)C [Tanshinone IIA, tanshinone IIA] |  | 0 | 100 | 500 | 23000 | 127000 | Solubility in water without solubilizer [2]: 0^2 μg/mL
C=C1C[C@@]23CC[C@H]4[C@@](C)(CCC[C@@]4(C)C(=O)O[C@@H]4O[C@H](CO)[C@@H](O)[C@H](O)[C@H]4O)[C@@H]2CC[C@]1(O[C@@H]1O[C@H](CO)[C@@H](O)[C@H](O)[C@H]1O[C@@H]1O[C@H](CO)[C@@H](O)[C@H](O)[C@H]1O)C3 [stevioside] |  |  |  |  |  |  | Adverse effects [5]: no adverse effects
CC[C@@]1(O)C(=O)OCc2c1cc1n(c2=O)Cc2cc3ccccc3nc2-1 [Camptothecin, camptothecin] | poor solubility in water |  |  |  |  |  | Water solubility in words ([1]; listed as camptothecin): insoluble; Concentration in water solution With Geniposide [3]: 25000 ng/mL; Concentration in water solution With Mogroside V [3]: 18000 ng/mL; Concentration in water solution With Paeoniflorin [3]: 53000 ng/mL; Concentration in water solution With Paeoniflorin ([3]; listed as camptothecin): 54000 ng/mL; Concentration in water solution With Rebaudioside A [3]: 48000 ng/mL; Concentration in water solution With Rubusoside [3]: 61000 ng/mL
C[C@@H]1CC[C@H]2[C@@H](C)C(=O)O[C@@H]3O[C@@]4(C)CC[C@@H]1[C@]32OO4 [Artemisinin, artemisinin, reference compound] | poorly soluble | 0 | 146000 | 148000 | 218000 | 280000 | Water solubility in words ([1]; listed as artemisinin): insoluble; solubility at 72 h [4]: 53 µg/mL (≈ 0.188 mM)
C=C1C[C@@]23CC[C@H]4[C@@](C)(CCC[C@@]4(C)C(=O)O[C@@H]4O[C@H](CO)[C@@H](O)[C@H](O)[C@H]4O)[C@@H]2CC[C@]1(O[C@@H]1O[C@H](CO)[C@@H](O)[C@H](O)[C@H]1O)C3 [Rubusoside, b-D-glucosyl ester of 13-O-b-D-glucosyl-steviol] | good solubility in water |  |  |  |  |  | solubility ([6]; 25 °C): ~400000 µg/mL (≈ 622 mM); solubility ([6]; 37 °C): ~800000 µg/mL (≈ 1240 mM); No-observed-effect level ([7]; estimate based on 383 mg/kg body weight daily expressed as steviol): up to 766 mg rubusoside/kg body weight; Daily consumption that is safe and has no adverse effect ([7]; estimate based on the aglycone steviol): 8 mg rubusoside/kg body weight
C=C1C[C@@]23CC[C@H]4[C@@](C)(CCC[C@@]4(C)C(=O)O)[C@@H]2CC[C@]1(O)C3 [steviol] |  |  |  |  |  |  | No-observed-effect level expressed as steviol [8]: 383 mg/kg body weight daily
CC(=O)O[C@H]1C(=O)[C@@]2(C)[C@H]([C@H](OC(=O)c3ccccc3)[C@]3(O)C[C@H](OC(=O)[C@H](O)[C@@H](NC(=O)c4ccccc4)c4ccccc4)C(C)=C1C3(C)C)[C@]1(OC(C)=O)CO[C@@H]1C[C@@H]2O [Paclitaxel, paclitaxel, reference compound] | not soluble in water |  | 1000 | 7000 | 20000 | 65000 | Water solubility in words ([1]; listed as paclitaxel): insoluble; Concentration in water solution With Rebaudioside A [2]: 26000 ng/mL
CCC(C)n1ncn(-c2ccc(N3CCN(c4ccc(OCC5COC(Cn6cncn6)(c6ccc(Cl)cc6Cl)O5)cc4)CC3)cc2)c1=O (centres unmarked) [itraconazole, reference compound] | practically insoluble in water |  |  |  |  |  | 
COC1=C(OC)C(=O)C(C/C=C(\C)CC/C=C(\C)CC/C=C(\C)CC/C=C(\C)CC/C=C(\C)CC/C=C(\C)CC/C=C(\C)CC/C=C(\C)CC/C=C(\C)CCC=C(C)C)=C(C)C1=O [Coenzyme Q10, coenzyme Q10] | insolubility in water |  |  |  |  | 111000 | 
OC[C@H]1O[C@@H]2O[C@H]3[C@H](O)[C@@H](O)[C@@H](O[C@H]4[C@H](O)[C@@H](O)[C@@H](O[C@H]5[C@H](O)[C@@H](O)[C@@H](O[C@H]6[C@H](O)[C@@H](O)[C@@H](O[C@H]7[C@H](O)[C@@H](O)[C@@H](O[C@H]1[C@H](O)[C@H]2O)O[C@@H]7CO)O[C@@H]6CO)O[C@@H]5CO)O[C@@H]4CO)O[C@@H]3CO [α-CD] |  |  |  |  |  |  | Solubility in water [9]: 15 g/100 mL
CC(C)/N=c1\cc2n(-c3ccc(Cl)cc3)c3ccccc3nc-2cc1Nc1ccc(Cl)cc1 [Clofazimine, clofazimine, reference compound] | practically insoluble in water | 400 | 48000 | 58000 | 565000 | 132000 | solubility at 72 h [4]: 7.6 µg/mL (≈ 0.0161 mM); Concentration in water solution With Rebaudioside A [2]: 109000 ng/mL; Concentration in water solution With Steviol monoside [2]: 0 ng/mL; Concentration in water solution With Stevioside [2]: 64000 ng/mL
Cc1ccc(-c2cc(C(F)(F)F)nn2-c2ccc(S(N)(=O)=O)cc2)cc1 [Celecoxib, celecoxib, reference compound] | poor solubility in water | 0 | 3000 | 47000 | 253000 | 488000 | Water solubility in words ([1]; listed as celecoxib): water insoluble; Solubility in water without solubilizer [2]: 0^2 μg/mL
